Reference: PubChem BioAssay (NCI)
Several values for one entry are separate records, joined by “and”; a condition that tells them apart may be missing. Identical values can stand only once.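 These data come from cells grown in 96-well plates and exposed to compound for 48 hours at five concentrations. At the GI50, growth is halved. TGI: total growth inhibition.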

Legend:
Test in all cases: NCI anticancer screen, dose series, 48 h
KM12 colon = tested on: KM12 colon
TK-10 renal = tested on: TK-10 renal
NCI-H460 lung = tested on: NCI-H460 lung
EKVX NSCLC = tested on: EKVX NSCLC
MOLT-4 leukemia = tested on: MOLT-4 leukemia
SR leukemia = tested on: SR leukemia
MDA-MB-231 breast = tested on: MDA-MB-231 breast
MDA-MB-435 = tested on: MDA-MB-435
ACHN renal = tested on: ACHN renal
SF-539 CNS = tested on: SF-539 CNS

Row | SMILES | GI50 (KM12 colon) | TGI (KM12 colon) | GI50 (TK-10 renal) | TGI (TK-10 renal) | GI50 (NCI-H460 lung) | TGI (NCI-H460 lung) | GI50 (EKVX NSCLC) | TGI (EKVX NSCLC) | GI50 (MOLT-4 leukemia) | TGI (MOLT-4 leukemia) | GI50 (SR leukemia) | GI50 (MDA-MB-231 breast) | TGI (MDA-MB-231 breast) | GI50 (MDA-MB-435) | TGI (MDA-MB-435) | GI50 (ACHN renal) | TGI (ACHN renal) | GI50 (SF-539 CNS) | TGI (SF-539 CNS) | TGI (SR leukemia)
1 | CC[C@@]1(O)C(=O)OCc2c1cc1n(c2=O)Cc2c-1nc1cc3c(cc1c2CCl)OCO3 | 0.181 µM | 1.88 µM | 0.292 µM | 11.1 µM | < 0.01 µM | < 0.0318 µM | 0.994 µM | > 44.6 µM | < 0.01 µM | < 0.038 µM | < 0.01 µM | 1.38 µM | 20.7 µM | 0.0592 µM | 2.24 µM | < 0.01 µM | 0.0322 µM | < 0.01 µM | < 0.0135 µM | 
2 | CCc1ccc(/C=C\c2cc(OC)c(OC)c(OC)c2)cc1 |  |  |  |  | 0.0329 µM |  | 0.0521 µM | > 100 µM |  |  |  |  | 0.25 µM |  | 0.0066 µM | 0.0784 µM | 31.8 µM | 0.0163 µM | 0.0443 µM and 0.0546 µM | 0.336 µM
3 | C[C@@H]1OC(O)[C@@H](F)[C@H](O)[C@@H]1O (some centres not stated) | > 100 µM | > 100 µM | > 100 µM | > 100 µM | > 100 µM | > 100 µM | > 100 µM | > 100 µM | > 100 µM | > 100 µM | > 100 µM | > 100 µM | > 100 µM | > 100 µM | > 100 µM | > 100 µM | > 100 µM | > 100 µM | > 100 µM | > 100 µM
4 | CCN(CC)c1ccc(/C=C/c2ccc3cc(C)ccc3[n+]2CC)cc1 | 0.103 µM | 1.89 µM | 0.146 µM | 11.8 µM |  |  | 0.0787 µM | 13.2 µM | 0.161 µM | 2.65 µM | 0.09 µM | 0.215 µM | 2.16 µM | 0.113 µM | 1.28 µM | 0.336 µM | 5.67 µM | 0.172 µM | 10.9 µM | 2.28 µM
5 | CC(=O)OCCN1c2ccccc2Sc2cnccc21 |  | > 10 µM |  | > 10 µM |  | > 10 µM |  | > 10 µM |  | > 10 µM |  |  | > 10 µM |  | > 10 µM |  | > 10 µM |  | > 10 µM | > 10 µM
6 | CC1(C)OC2[C@@H](CNC(=O)NC(=O)NC(=O)CI)O[C@@H](n3cnc4c(NC(=O)Nc5ccccc5)ncnc43)[C@H]2O1 (some centres not stated) | 15.8 µM | > 50 µM | 8.59 µM | 15.5 µM | 27 µM | > 50 µM | 28.4 µM | > 50 µM | 1.86 µM | 9.28 µM | 0.954 µM | 9.42 µM | 19.4 µM | 7.57 µM | 14.8 µM | 6.94 µM | 14.7 µM | 4.75 µM | 10.9 µM | 2.3 µM
7 | COc1ccc(C2=CC3CCC2C3)cc1 (configuration not stated) |  | > 100 µM |  | > 100 µM |  | > 100 µM |  | > 100 µM |  | > 100 µM |  |  |  |  |  |  | > 100 µM |  | > 100 µM | > 100 µM
8 | CC1=NN(C(=O)Nc2ccccc2)C(=O)C2CCC(=O)N12 (configuration not stated) |  | > 100 µM |  | > 100 µM |  | > 100 µM |  | > 100 µM |  | > 100 µM |  |  |  |  |  |  | > 100 µM |  | > 100 µM | > 100 µM
9 | CC(C)C(=O)NC(=S)Nc1ccc([N+](=O)[O-])cc1C#N |  | > 100 µM |  | > 100 µM |  | > 100 µM |  | > 100 µM |  | > 100 µM |  |  |  |  |  |  | > 100 µM |  | > 100 µM | > 100 µM
10 | CC/C(=C(/c1ccc(O)cc1)c1ccc(OCCNC)cc1)c1ccccc1 | 1.87 µM | 3.83 µM | 2.76 µM | 7.76 µM | 1.84 µM | 3.37 µM |  |  | 2.46 µM | 7.14 µM | 2.09 µM | 1.39 µM | 3.09 µM | 1.54 µM | 2.98 µM | 2.64 µM | 7.52 µM | 1.7 µM | 3.22 µM | 5.46 µM
11 | COc1ccc(-c2cnnc3c(-c4cccc(C(F)(F)F)c4)cnn23)cc1 | > 100 µM | > 100 µM |  |  | 4.67 µM | > 100 µM | 3.41 µM | > 100 µM | > 100 µM | > 100 µM | > 100 µM | 3.55 µM | > 100 µM | 5.04 µM | > 100 µM | 3.52 µM | > 100 µM | 3 µM | > 100 µM | > 100 µM
12 | COC(=O)/C(=N/NC(=O)C[N+](C)(C)C)C(C(=O)OC)C(=O)C(=O)Nc1ccc(F)cc1 (configuration not stated) |  | > 100 µM |  | > 100 µM |  | > 100 µM |  | > 100 µM |  | > 100 µM |  |  |  |  |  |  | > 100 µM |  | > 100 µM | > 100 µM
13 | CCCCN=C(NC#N)NCCCC |  | > 100 µM |  | > 100 µM |  | > 100 µM |  | > 100 µM |  | > 100 µM |  |  |  |  |  |  | > 100 µM |  | > 100 µM | > 100 µM
14 | Nc1cc(N)c2nc(-c3ccccc3)c(Nc3ccc(Cl)c(Cl)c3)nc2c1 | 5.89 µM | 24.6 µM | 13.7 µM | 30.1 µM | 8.27 µM | 22.9 µM | 3.83 µM | 16.2 µM | 4.05 µM | > 100 µM | 2.56 µM | 5.72 µM | 27.8 µM | 2.16 µM | 4.59 µM |  |  | 17.1 µM | 35.3 µM | 15.5 µM
15 | COC(=O)C1Cc2c(n(Cc3ccccc3)c3ccccc23)C(CCC(=O)O)N1C(C)C (configuration not stated) |  | > 100 µM |  | > 100 µM |  | > 100 µM |  | > 100 µM |  | > 100 µM |  |  |  |  |  |  | > 100 µM |  | > 100 µM | > 100 µM
16 | COC12C=C(C)C(CC1)CC2C(=O)O (configuration not stated) |  | > 100 µM |  | > 100 µM |  | > 100 µM |  | > 100 µM |  | > 100 µM |  |  |  |  |  |  | > 100 µM |  | > 100 µM | > 100 µM
17 | CC(=O)CNC(=O)OC(C)(C)C |  | > 100 µM |  | > 100 µM |  | > 100 µM |  | > 100 µM |  | > 100 µM |  |  |  |  |  |  | > 100 µM |  | > 100 µM | > 100 µM
18 | O=C(/C=C/c1c(O)ccc2ccccc12)c1cccc(O)c1 |  | > 100 µM |  | > 100 µM |  | > 100 µM |  | > 100 µM |  | > 100 µM |  |  |  |  |  |  | > 100 µM |  | > 100 µM | > 100 µM
19 | COc1ccc(-c2cc(=O)c3c(OC)c(OC)c(OC)cc3o2)cc1 |  |  |  | > 100 µM |  | 81.4 µM |  | > 100 µM |  | > 100 µM |  |  | > 100 µM |  | > 100 µM |  | > 100 µM |  | > 100 µM | > 100 µM
